The source of these data is patent publication US20180200331A1, “BST-2 AS A THERAPEUTIC TARGET AND DIAGNOSTIC MARKER FOR BREAST CANCER GROWTH AND METASTASIS” (University of Iowa Research Foundation, priority 2015, published 2018).

Data set [1] relates to E0771 or 4T1 cells. In words: Cell invasion assay (Matrigel). Type of data set: cell-based, mouse. The following applies: 24 h. How it is done:
The apical chamber of 24-well cell culture inserts (Merck Millipore) were coated with 3 mg/ml of Matrigel (100 μl) (Sigma-Aldrich) and allowed to solidify for 5 hours. A total of 100,000 sh413- or shControl-transduced E0771 or 4T1 cells in serum-free medium were plated on top of the Matrigel layer. Culture medium containing 10% FBS and 5 μg/ml fibronectin (adhesive substrate) (Sigma-Aldrich) was added to the basal chamber of the unit (600 μl) and cells were allowed to invade through the membranous barrier for 24 hours at 37° C. Noninvasive cells were washed off; invasive cells were fixed with 4% PFA, permeabilized with 100% methanol, labeled with Giemsa stain and imaged as described in the previous paragraph. Images were processed using Image J software. Cells from five different fields were counted and averaged.

The subject of data set [2] is 4T1 cells. In words: Tail vein injection of 4T1 cells, lung metastasis. Type of data set: in vivo, BALB/c mice. How it is done: Metastatic tumors were generated by implanting 300,000 4T1 shControl, sh413 or sh413 WT cells in 100 μl of PBS via tail vein in five-week-old female mice. Prior to imaging, mice were anesthetized, weighed and injected intraperitoneally with D-luciferin. Mice were imaged using the Xenogen IVIS three-dimensional optical imaging system (Caliper Life Sciences). Moreover, lung metastatic tumors were imaged post-mortem and counted grossly. Moreover, spleens from shControl, sh413, or sh413 WT injected mice were isolated and weighted. Average splenic weight was calculated from 3 different mice and plotted in a bar graph. Finally, Kaplan-Meier survival plots were generated and analyzed using the Gehan-Breslow-Wilcoxon test (GraphPrism) (FIG. 44).
Protein from lungs of mice injected with 4T1 shControl, sh413, or sh413 WT cells via tail vein was isolated to perform western blots blotting for total levels of BIM, levels of activated Caspase-3 (Cleaved Caspase-3) and GAPDH. Bands from 3 different western blots were normalized to GAPDH, quantified, averaged and depicted as bar graphs (FIG. 45).

In data set [3] the test system is 4T1 cells. In words: MTT assay, 4T1. Type of data set: cell-based, mouse. How it is done: (§1) A total of 5,000 cells stably expressing sh137, sh413, or shControl were plated in 96-well plates. Cells were then incubated with 5 mg/ml MTT reagent for 3.5 hours followed by addition of MTT solvent (0.1% NP-40 and 4 mM HCl in isopropanol) and rocking for 15 minutes. Absorbance at 590 nm was read using a Tecan Infinite M200 Pro plate reader.
(Tetrazolium dyes change colour on reduction, which living cells bring about.)

Data set [4] relates to E0771 cells. Description: MEF adhesion assay. Type of data set: cell-based, mouse. The following applies: luciferase bioluminescence and PKH67Green. How it is done:
Murine embryonic fibroblasts (MEFs) were grown to confluency in 6-well plates. Equivalent numbers (150,000) of cancer cells labeled with PKH67Green fluorescent cell linker, following the manufacturer's instructions (Sigma-Aldrich), were added to the MEF monolayer and allowed to incubate for 8 hours. Non-adhered cells were washed off and adhered cells imaged. Image J (NIH, Bethesda, Md., USA) was used to quantify the number of PKH67Greenpositive cells. In parallel, luciferase-expressing cancer cells were added to MEFs monolayers in 6-well plates for 8 hours. Non-adhered cells were washed off and adhered cells were treated with D-luciferin and imaged using IVIS. For luciferase assay, cancer cells plated in 96-well plate were used for quantitation of luciferase bioluminescence.

In data set [5] the test system is mammary cancer cells. In words: Scratch assay. Type of data set: cell-based, mouse. The following applies: 6 h and 24 h. How it is done: Confluent monolayers of cancer cells plated in 12-well plates were scratched using a pipette tip. Fresh medium was added to the wells. Cells were allowed to migrate for 0, 6 or 24 hours before fixation (4% paraformaldehyde (PFA) for 45 minutes). Fixed cells were washed (1×PBS) and imaged with a Nikon Eclipse Ti microscope adjusted with a Nikon digital sight camera (Nikon, Tokyo, Japan). Images were processed and migrated cells counted using Image J software.

The test system of data set [6] is 4T1 cells. In words: Collagen and fibronectin adhesion assay. Type of data set: cell-based, mouse. Particulars: pre-coated plates, 4 hours. How it is done:
Ninety-six-well plates were coated with 50 μg/ml of collagen or fibronectin. Plates were incubated at 37° C. for 2 hours. Nonspecific sites were blocked with 40 μl of 2 mg/ml bovine serum albumin (BSA) in PBS. Wells were washed once with PBS. Cancer cells were labeled with PKH67 Green fluorescent cell linker, following the manufacturer's instructions (Sigma-Aldrich). Labelled cells were added to pre-coated wells (20,000 cells/well) and allowed to adhere for 4 hours. Non-adhered cells were washed off with PBS and plates were read at 485 nm/535 nm (excitation/emission) wavelengths using a Tecan Infinite M200 Pro plate reader (Tecan, Maennedorf, Switzerland). Values are represented as relative fluorescence unit.

The test system of data set [7] is E0771 cells. In words: MTT assay, E0771. Type of data set: cell-based, mouse. How it is done: as §1
Data set [8] relates to mammary cancer cells. Description: Transformation assay (soft agar colony formation). The following applies: compared to shControl. Type of data set: cell-based, mouse. How it is done:
Agar was mixed in Roswell Park Memorial Institute medium (RPMI) with 20% FBS. A total of 500 μl of 0.5% agar was added to 24-well plate and allowed to solidify. Cells were plated at 1,250 cells/well in 500 μl of 0.35% agarose. Some 250 μl of the appropriate growth medium was added on top of the agarose layer. Growth medium was replaced twice a week. Colonies were stained with crystal violet and imaged. Colonies from five different fields were counted and averaged.

The subject of data set [9] is 4T1 cells. Description: Anoikis assay (Poly-HEMA). Type of data set: cell-based, mouse. The following applies: 48 hours. How it is done:
96-well plates were coated with 50 ul of sterile 95% Ethanol or 50 ul of 12 mg/ml Poly-HEMA in 95% Ethanol (Sigma-Aldrich) and allowed to dry for 72 hours under the hood as previously described. (See Phung et al. (2011) Rapid generation of in vitro multicellular spheroids for the study of monoclonal antibody therapy. J Cancer 2: 507-514). Poly-HEMA prevents cells from attaching to the plastic. Following, 4T1 shControl, sh413, sh413 WT, or sh413 C3A cells were plated at 20,000 cells/well. Plates were centrifuged at 1,200 g for 10 minutes and then incubated at 37° C. for 48 hours. Cells were collected to test cell viability using trypan blue (Life technologies) and an MTT assay (Life technologies). The rest of the cells were pelleted and kept at −20° C. until used for RNA and protein isolation.

Take “sh413: BST-2-targeting shRNA (SEQ ID NO:4), delivered by lentiviral particles (CCGGGCTTGAGAATGAAGTCACGAACTCGAGTTCGTGACTTCATTCTCAAGCTTTTTG)”: the “invasion through Matrigel” value in data set [1] was “reduced the ability of the cells to invade the basement membrane”. In addition, the “levels of pro-apoptotic factors (BIM, Caspase-3) in the lungs” value in data set [2] (tail vein injected mice) is on record as “elevates levels of pro-apoptotic factors”. In data set [2] (tail vein, 42 days), the lung metastasis result is on record as “decreases lung metastasis in vivo”. For the same substance, the “cell viability (MTT)” value is listed as “increased cell viability” in [3] and “equally viable” in [7]. For the same substance, the “cancer cell adhesion to MEF” value in data set [4] is “decreased the ability of cancer cells to adhere to supporting cells”. In addition, the “migration into scratch wound” value in data set [5] is listed as “lost the ability to migrate”. Moreover, the adhesion to collagen entry in data set [6] was “reduced adhesive capability”. In data set [6], the adhesion to fibronectin result is reported as “reduced adhesive capability”. For the same substance, the “colony numbers in soft agar” value in data set [8] is reported as “reduced colony numbers”. Further, the susceptibility to anoikis result in data set [9] is given as “renders cells susceptible to anoikis”.
